# Test results: ChEMBL document CHEMBL6103652, “Niacin Ester Derivative of Brefeldin A as a Potential Dual-Target Arf1/BMX Inhibitor for Bladder Cancer” (J Nat Prod, 2025)
# The source made the active and inactive calls. The rule behind the calls is not given here.
# Assays:
# T-24 [1] = test: Antiproliferative activity against human T24 cells assessed as inhibition of cell proliferation at 0.25 uM incubated for 72 hrs by MTT assay relative to control; type: functional
# Bel-7402 = test: Antiproliferative activity against human Bel-7402 cells assessed as inhibition of cell proliferation measured after 72 hrs by MTT assay; type: functional, cell-based; details: Bel-7402, 72 h
# HCT-116 = test: Antiproliferative activity against human HCT-116 cells assessed as inhibition of cell proliferation measured after 72 hrs by MTT assay; type: functional, cell-based; details: HCT-116, 72 h
# HT-29 = test: Antiproliferative activity against human HT-29 cells assessed as inhibition of cell proliferation measured after 72 hrs by MTT assay; type: functional, cell-based; details: HT-29, 72 h
# T-24 [2] = test: Inhibition of colony formation in human T24 cells at 0.50 uM measured after 10 days by crystal violet staining based analysis relative to control; type: functional; details: T-24, 240 h, time 10 day
# T-24 [3] = test: Inhibition of colony formation in human T24 cells at 0.25 uM measured after 10 days by crystal violet staining based analysis; type: functional, cell-based; details: time 10.0 day
# T-24 [4] = test: Induction of cell cycle arrest in human T24 cells assessed as accumulation of cells at G1 phase at 0.13 uM incubated for 24 hrs by RNase A/Propidium Iodide staining based flow cytometry analysis (reference value: 43.80 %); type: functional
# T-24 [5] = test: Induction of cell cycle arrest in human T24 cells assessed as accumulation of cells at S phase at 0.13 uM incubated for 24 hrs by RNase A/Propidium Iodide staining based flow cytometry analysis (reference value: 31.27 %); type: functional
# T-24 [6] = test: Induction of cell cycle arrest in human T24 cells assessed as accumulation of cells at S phase at 0.25 uM incubated for 24 hrs by RNase A/Propidium Iodide staining based flow cytometry analysis (reference value: 31.27 %); type: functional
# T-24 [7] = test: Induction of cell cycle arrest in human T24 cells assessed as accumulation of cells at S phase at 0.50 uM incubated for 24 hrs by RNase A/Propidium Iodide staining based flow cytometry analysis (reference value: 31.27 %); type: functional; details: dose 0.5 µM
# T-24 [8] = test: Induction of cell cycle arrest in human T24 cells assessed as accumulation of cells at G2/M phase at 0.25 uM incubated for 24 hrs by RNase A/Propidium Iodide staining based flow cytometry analysis (reference value: 22.67 %); type: functional
# T-24 [9] = test: Induction in apoptosis in human T24 cells assessed as viable cells at 0.13 uM incubated for 48 hrs by Annexin V-FITC staining based flow cytometry analysis (reference value: 90.44 %); type: functional; details: read-out: Activity
# T-24 [10] = test: Induction in apoptosis in human T24 cells assessed as viable cells at 0.25 uM incubated for 48 hrs by Annexin V-FITC staining based flow cytometry analysis (reference value: 90.44 %); type: functional; details: read-out: Activity
# [11] = target: T1, Cytoplasmic tyrosine-protein kinase BMX (Homo sapiens) (UniProt P51813); test: Induction of thermal stabilization of BMX in human T24 cells at 48 to 68 degreeC at 0.13 to 0.50 uM incubated for 6 hrs by CETSA analysis; type: cell-based; details: dose 0.13-0.5 µM
# T1 sequence (whole entry): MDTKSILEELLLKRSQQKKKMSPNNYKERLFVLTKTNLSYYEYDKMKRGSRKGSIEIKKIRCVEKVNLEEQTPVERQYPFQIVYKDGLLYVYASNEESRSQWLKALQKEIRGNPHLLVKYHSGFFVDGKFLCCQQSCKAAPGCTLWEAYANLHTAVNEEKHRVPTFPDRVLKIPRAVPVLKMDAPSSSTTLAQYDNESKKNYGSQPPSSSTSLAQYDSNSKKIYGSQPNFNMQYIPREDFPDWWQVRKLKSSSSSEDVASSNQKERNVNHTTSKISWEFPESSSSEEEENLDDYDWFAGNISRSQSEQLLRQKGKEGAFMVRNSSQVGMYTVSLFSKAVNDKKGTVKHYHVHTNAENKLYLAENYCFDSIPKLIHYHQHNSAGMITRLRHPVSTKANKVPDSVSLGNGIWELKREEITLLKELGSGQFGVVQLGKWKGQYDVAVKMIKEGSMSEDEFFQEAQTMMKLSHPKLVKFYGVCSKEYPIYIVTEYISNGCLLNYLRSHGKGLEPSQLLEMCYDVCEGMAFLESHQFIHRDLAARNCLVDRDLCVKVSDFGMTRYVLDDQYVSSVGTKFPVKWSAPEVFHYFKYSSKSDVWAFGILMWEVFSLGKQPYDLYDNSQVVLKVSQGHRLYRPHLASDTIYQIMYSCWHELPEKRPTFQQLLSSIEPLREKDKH
# [12] = target: T1, Cytoplasmic tyrosine-protein kinase BMX (Homo sapiens); test: Induction of thermal stabilization of BMX in human T24 cells pretreated for 2 hrs followed by pronase addition and measured after 25 mins by DARTS assay; type: cell-based; details: dose 0.2-5 mM
# [13] = Downregulation of STAT3 expression level in human T24 cells at 0.25 uM incubated for 24 hrs by Western blotting analysis relative to control; type: functional, T-24
# [14] = MRT(0 to t) in Sprague-Dawley rat at 5 mg/kg, iv measured upto 24 hrs; type: ADME, organism-based; details: in vivo
# [15] = Volume of distribution at steady state in Sprague-Dawley rat at 5 mg/kg, iv measured upto 24 hrs; type: ADME, organism-based; details: in vivo, read-out: Vdss
# MB49 [16] = test: Antitumor activity against mouse MB49 cells implanted in male C57BL/6 mouse model assessed as reduction in tumor volume at 1 mg/kg,iv bid measured after 14 days; type: functional, organism-based; details: time 14.0 day
# [17] = Antitumor activity against mouse MB49 cells implanted in male C57BL/6 mouse model assessed as reduction in tumor weight at 1 mg/kg,iv bid measured after 14 days relative to control; type: functional; parameters: scale not given: the % may be the effect or the level left; details: time 14 day
# [18] = Toxicity in male C57BL/6 mouse allografted with mouse MB49 cells assessed as body weight change at 1 mg/kg,iv bid measured after 14 days; type: organism-based; details: in vivo, 336 h, time 14 day
# [19] = Toxicity in male C57BL/6 mouse allografted with mouse MB49 cells assessed as tumor cell necrosis at 1 mg/kg,iv bid measured after 14 days by H and E staining based analysis; type: organism-based; details: in vivo, 336 h, time 14 day
# MB49 [20] = test: Antitumor immunity against mouse MB49 cells implanted in male C57BL/6 mouse assessed as increase in infiltration of CD8+T cells at 1 mg/kg,iv bid measured after 14 days immunofluorescence based analysis; type: functional, organism-based; details: time 14.0 day
# [21] = Cytotoxicity against human LO2 cells measured after 72 hrs by MTT assay; type: toxicity, cell-based, L02
# [22] = Selectivity index, ratio of IC50 for cytotoxicity against human LO2 cells to IC50 for antiproliferative activity against human T24 cells; type: toxicity, cell-based; details: LO2 cells and T24 cells, read-out: Ratio IC50
# [23] = Solubility of the compound in aqueous saline; type: physicochemical
# [24] = Solubility of the compound in PEG400; type: physicochemical
# [25] = Solubility of the compound in Solutol HS-15; type: physicochemical
# [26] = Solubility of the compound in 5% saline and 50% PEG400; type: physicochemical
# [27] = Toxicity in male C57BL/6 mouse allografted with mouse MB49 cells assessed as adverse effect at 1 mg/kg,iv bid measured after 14 days; type: organism-based; details: in vivo, 336 h, time 14 day
smiles,measurement,setting,value
C[C@H]1CCC/C=C/[C@@H]2C[C@H](O)C[C@H]2[C@H](OC(=O)c2cccnc2)/C=C/C(=O)O1,inhibition at 0.25 µM,T-24 [1],54%
same,IC50,Bel-7402,0.46 µM
same,IC50,HCT-116,0.58 µM
same,IC50,HT-29,0.41 µM
same,inhibition at 0.5 µM,T-24 [2],100%
same,inhibition,T-24 [3],Active; Entirely Suppressed Clone Formation Was Observed
same,Activity,T-24 [4],47.36%
same,Activity,T-24 [5],28.6%
same,Activity,T-24 [6],29.56%
same,Activity,T-24 [7],19.52%
same,Activity,T-24 [8],19.43%
same,viability at 0.13 µM,T-24 [9],89.2%
same,viability at 0.25 µM,T-24 [10],66.9%
same,Activity,[11],Active
same,Activity,[12],Dose-dependent-effect
same,Activity,[13],53%
same,MRT last at 24 h,[14],8.4 min
same,Vd,[15],0.59 L/kg
same,Activity,MB49 [16],Active
same,Activity,[17],48%
same,Activity,[18],Non-toxic
same,Activity,[19],Non-toxic
same,Activity,MB49 [20],Active
same,IC50 at 72 h,[21],0.79 µM
same,selectivity ratio,[22],3.59
same,solubility,[23],< 1000 µg/mL
same,solubility,[24],Not_active
same,solubility,[25],2000 µg/mL
same,solubility,[26],5000 µg/mL
same,Activity,[27],Non-toxic
